Measurements taken from patent US12612410B2 (CHILDREN'S HOSPITAL MEDICAL CENTER, priority 2020, dated 2026).

Experiments:
[1] = tested on: MOLM14 F691L cells; assay: MOLM14 F691L cell viability assay (Cell Titer Glo); type: cell-based
Outline: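 MOLM14 cells carrying FLT3 D835Y or F691L were seeded at 1000 cells/well in RPMI-1640 with 20% FBS and dosed at 22 concentrations, 1:2 dilutions from 10 μM. Viability after 48 h by Cell Titer Glo luminescence; 2.3 μM bortezomib as cytotoxic control.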

[2] = target: T1, IRAK4 (Homo sapiens, UniProt Q9NWZ3); assay: Reaction Biology NanoBRET target engagement assay, IRAK4; type: cell-based; settings: transfected HEK-293 cells
T1 sequence (Q9NWZ3 1-460): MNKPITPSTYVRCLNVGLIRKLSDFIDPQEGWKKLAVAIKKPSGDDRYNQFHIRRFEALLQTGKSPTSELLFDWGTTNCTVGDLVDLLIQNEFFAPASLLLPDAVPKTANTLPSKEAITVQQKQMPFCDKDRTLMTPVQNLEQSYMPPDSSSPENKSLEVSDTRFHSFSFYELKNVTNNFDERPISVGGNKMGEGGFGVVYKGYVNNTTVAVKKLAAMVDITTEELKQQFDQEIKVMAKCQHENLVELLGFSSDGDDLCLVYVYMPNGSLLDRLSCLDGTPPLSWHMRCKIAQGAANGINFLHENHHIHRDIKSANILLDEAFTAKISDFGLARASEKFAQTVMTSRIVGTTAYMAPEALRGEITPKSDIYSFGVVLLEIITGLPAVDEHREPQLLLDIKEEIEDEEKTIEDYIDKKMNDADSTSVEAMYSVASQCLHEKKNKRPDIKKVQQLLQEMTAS
From the text: The NanoBRET assay measures kinase engagement in real time in the context of the intact cell. Unlike the previously described biochemical kinase assay methodologies in Examples 26-27, the NanoBRET assay measures the binding and activity characteristics under equilibrium conditions using full-length kinases in the presence of cellular concentrations of ATP in live, uncompromised cells. As such, the assay provides a more relevant assessment of kinase potency and selectivity that would be expected to be observed in the native cellular environment, where potency is often considerably lower than that observed in the isolated biochemical assays (Vasta, J. D. et al., (2018) Cell Chem. Biol. 25, 206-214). The assay uses a Kinase-NanoLuc® fusion vector expressing a kinase protein to which a luciferase tag has been added, a cell-permeant fluorescent NanoBRET™ tracer, a NanoLuc® substrate, and an extracellular NanoLuc® inhibitor. Upon expression of the luciferase-tagged kinase, cells will produce a strong BRET signal only in the presence of the NanoBRET™ tracer. The extracellular NanoLuc® inhibitor ensures that the BRET signal observed emanates only from live cells. Because the BRET signal has tight distance constraints, addition of the test compound will decrease the BRET signal if the compound competes with the NanoBRET™ tracer for binding to the kinase domain. Under the appropriate tracer conditions established by the manufacturer, quantitative intracellular affinity and relative potency can then be determined using Mass Action model equations.
HEK-293 cells were purchased from ATCC. FuGENEHD Transfection Reagent, Kinase-NanoLucfusion plasmids, Transfection Carrier DNA, NanoBRETTracers and dilution buffer, NanoBRETNano-Glo Substrate, Extracellular NanoLucInhibitor were obtained from Promega.
Assays were conducted following Promega assay protocol with some modifications. HEK-293 Cells were transiently transfected with Kinase-NanoLucFusion Vector DNA by FuGENEHD Transfection Reagent. Testing compounds were delivered into 384 well assay plate by Echo 550 (Labcytelnc, Sunnyvale, CA). Transfected cells were harvested and mixed with NanoBRETTracer Reagent and dispensed into 384 well plates and incubated at 37° C. in 5% CO2 cell culture incubator for 1 hour. The NanoBRETNano-Glo Substrate plus Extracellular NanoLucInhibitor Solution were added into the wells of the assay plate and incubated for 2-3 minutes at room temperature. The donor emission wavelength (460 nm) and acceptor emission wavelength (600 nm) were measured in the EnVisionplate reader. The BRET Ratios were calculated. BRET Ratio=[(Acceptor sample÷Donor sample)−(Acceptor no-tracer control÷Donor no-tracer control)]. The IC50 values of compounds were calculated with Prism GraphPad program.
NanoBRET™ Target Engagement Assay Protocol
1. Transient Transfection of HEK-293 Cells NanoLuc® Fusion Vector DNA
• 1). Cultivate HEK-293 cells (70-80% confluence) appropriately prior to assay. Trypsinize and collect HEK-293 cells. • 2). Prepare lipid: DNA complexes as follows: • a. Prepare a […] solution of DNA in Opti-MEM without serum that consists of the following ratios of carrier DNA and DNA encoding NanoLuc® fusion. 9.0 µg/mL of Transfection Carrier DNA, […] of NanoLuc fusion vector DNA and 1 mL of Opti-MEM without phenol red. Mix thoroughly. • b. Add 30 l of FuGENE HD Transfection Reagent into each milliliter of DNA mixture to form lipid: DNA complex. • c. Mix by inversion 10 times. • d. Incubate at ambient temperature for 20 minutes to allow complexes to form. • 3). In a sterile, conical tube, mix 1 part of lipid: DNA complex with 20 parts of HEK-293 cells in suspension. Mix gently by inversion 5 times. • 4). Dispense cells+lipid: DNA complex into a sterile tissue culture dish and incubate for 22-24 hours. 2. Addition of Test Compounds (dry plate shooting)
Each test compound is delivered from the compound source plate to the wells of 384-well white NBS plate by Echo 550.
3. […]

| Compound | IC50 ([1]; Homo sapiens, MOLM-14, 48 h) [nM] | IC50 [2] [nM] | IC50 ([1]; 48 hours) [nM] |
| --- | --- | --- | --- |
| O=C1CCCN1c1cn2c(-c3nc(N[C@@H]4CCCNC4)c(F)cc3F)cnc2cn1 [Compound 108, (R)-1-(3-(3,5-difluoro-6-(piperidin-3-ylamino)pyridin-2-yl)imidazo[1,2-a]pyrazin-6-yl)pyrrolidin-2-one] | 183 | 1 | – |
| CC(C)(C)c1cn2c(-c3nc(N[C@H]4CNCC[C@@H]4F)c(F)cc3F)cnc2cn1 [Compound 127, 6-(6-(tert-butyl)imidazo[1,2-a]pyrazin-3-yl)-3,5-difluoro-N-((3S,4S)-4-fluoropiperidin-3-yl)pyridin-2-amine] | 410 | 0.4 | – |
| CC(O)(c1cn2c(-c3cccc(N[C@H]4CNC[C@@H]4F)n3)cnc2cn1)C(F)(F)F (single isomer, unassigned) [Compound 77] | 376 | < 0.5 | – |
| FC(F)c1cn2c(-c3cccc(N[C@H]4CNC[C@@H]4F)n3)cnc2cn1 [Compound 16, 6-(6-(difluoromethyl)imidazo[1,2-a]pyrazin-3-yl)-N-((3S,4S)-4-fluoropyrrolidin-3-yl)pyridin-2-amine] | 226 | < 0.5 | – |
| CC(C)(O)c1cn2c(-c3nc(N[C@H]4CNCC[C@@H]4F)c(F)cc3F)cnc2cn1 [Compound 35, 2-(3-(3,5-difluoro-6-(((3S,4S)-4-fluoropiperidin-3-yl)amino)pyridin-2-yl)imidazo[1,2-a]pyrazin-6-yl)propan-2-ol] | 841 | < 0.5 | – |
| O=C1CCCN1c1cn2c(-c3nc(N[C@H]4CNCC[C@@H]4F)c(F)cc3F)cnc2cn1 [Compound 107, 1-[3-[3,5-difluoro-6-[[(3S,4S)-4-fluoro-3-piperidyl]amino]-2-pyridyl]imidazo[1,2-a]pyrazin-6-yl]pyrrolidin-2-one] | 97 | 10 | – |
| F[C@H]1CNC[C@@H]1Nc1cccc(-c2cnc3cnc(C4CC4)cn23)n1 [Compound 50, 6-(6-cyclopropylimidazo[1,2-a]pyrazin-3-yl)-N-((3S,4S)-4-fluoropyrrolidin-3-yl)pyridin-2-amine] | 192 | 1 | – |
| CC1(c2cn3c(-c4cccc(N[C@H]5CNCC56CC6)n4)cnc3cn2)CC1 [Compound 5, (R)-N-(6-(6-(1-methylcyclopropyl)imidazo[1,2-a]pyrazin-3-yl)pyridin-2-yl)-5-azaspiro[2.4]heptan-7-amine] | 34 | < 0.5 | – |
| FC(F)c1cn2c(-c3cccc(N[C@H]4CNCC[C@@H]4F)n3)cnc2cn1 [Compound 25, 6-(6-(difluoromethyl)imidazo[1,2-a]pyrazin-3-yl)-N-((3S,4S)-4-fluoropiperidin-3-yl)pyridin-2-amine] | 74 | < 0.5 | – |
| CC1(c2cn3c(-c4cccc(N[C@@H]5CCNC5)n4)cnc3cn2)CC1 [Compound 3, (R)-6-(6-(1-methylcyclopropyl)imidazo[1,2-a]pyrazin-3-yl)-N-(pyrrolidin-3-yl)pyridin-2-amine] | – | < 0.5 | – |
| CC(C)(O)c1cn2c(-c3nc(N[C@@H]4CCCNC4)c(F)cc3F)cnc2cn1 [Compound 34, (R)-2-(3-(3,5-difluoro-6-(piperidin-3-ylamino)pyridin-2-yl)imidazo[1,2-a]pyrazin-6-yl)propan-2-ol] | 1330 | < 0.5 | – |
| CC(O)(c1cn2c(-c3cccc(N[C@H]4CNCC[C@@H]4F)n3)cnc2cn1)C(F)(F)F (single isomer, unassigned) [Compound 80] | 196 | < 0.5 | – |
| CC(O)(c1cn2c(-c3cccc(N[C@H]4CNCC[C@@H]4F)n3)cnc2cn1)C(F)(F)F (single isomer, unassigned) [Compound 82] | – | < 0.5 | 157 |
| Cn1cc(-c2cn3c(-c4cccc(N[C@H]5CNC[C@@H]5F)n4)cnc3cn2)cn1 [Compound 52, N-((3S,4S)-4-fluoropyrrolidin-3-yl)-6-(6-(1-methyl-1H-pyrazol-4-yl)imidazo[1,2-a]pyrazin-3-yl)pyridin-2-amine] | 106 | – | – |
| Cn1cc(-c2cn3c(-c4cccc(N[C@@H]5CCCNC5)n4)cnc3cn2)cn1 [Compound 43, (R)-6-(6-(1-methyl-1H-pyrazol-4-yl)imidazo[1,2-a]pyrazin-3-yl)-N-(piperidin-3-yl)pyridin-2-amine] | 79 | 84 | – |
| CC(C)(C)c1cn2c(-c3cccc(N[C@@H]4CCCNC4)n3)cnc2cn1 [Compound 129, (R)-6-(6-(tert-butyl)imidazo[1,2-a]pyrazin-3-yl)-N-(piperidin-3-yl)pyridin-2-amine] | 163 | < 0.5 | – |
| O=C1NCCN1c1cn2c(-c3cccc(N[C@H]4CNCC[C@@H]4F)n3)cnc2cn1 [Compound 118, 1-(3-(6-(((3S,4S)-4-fluoropiperidin-3-yl)amino)pyridin-2-yl)imidazo[1,2-a]pyrazin-6-yl)imidazolidin-2-one] | 37 | – | – |
| CC(C)(C)c1cn2c(-c3nc(N[C@H]4CNC[C@@H]4F)c(F)cc3F)cnc2cn1 [Compound 125] | 2050 | < 0.5 | – |
| O=C1CCCN1c1cn2c(-c3cccc(N[C@H]4CNC[C@@H]4F)n3)cnc2cn1 [Compound 121, 1-(3-(6-(((3S,4S)-4-fluoropyrrolidin-3-yl)amino)pyridin-2-yl)imidazo[1,2-a]pyrazin-6-yl)pyrrolidin-2-one] | 173 | 2 | – |
| FC(F)COc1cn2c(-c3cccc(N[C@H]4CNC[C@@H]4F)n3)cnc2cn1 [Compound 58, 6-(6-(2,2-difluoroethoxy)imidazo[1,2-a]pyrazin-3-yl)-N-((3S,4S)-4-fluoropyrrolidin-3-yl)pyridin-2-amine] | – | < 0.5 | – |
| CC(C)(O)c1cn2c(-c3cccc(N[C@@H]4CCCNC4)n3)cnc2cn1 [Compound 30, (R)-2-(3-(6-(piperidin-3-ylamino)pyridin-2-yl)imidazo[1,2-a]pyrazin-6-yl)propan-2-ol] | 381 | – | – |
| FC(F)(F)C1(c2cn3c(-c4cccc(N[C@@H]5CCNC5)n4)cnc3cn2)CC1 [Compound 10, (R)-N-(pyrrolidin-3-yl)-6-(6-(1-(trifluoromethyl)cyclopropyl)imidazo[1,2-a]pyrazin-3-yl)pyridin-2-amine] | 168 | – | – |
| CC(O)(c1cn2c(-c3cccc(N[C@H]4CNC[C@@H]4F)n3)cnc2cn1)C(F)(F)F (single isomer, unassigned) [Compound 78] | – | – | 299 |
| FC(F)(F)COc1cn2c(-c3cccc(N[C@@H]4CCNC4)n3)cnc2cn1 [Compound 38, (R)-N-(pyrrolidin-3-yl)-6-(6-(2,2,2-trifluoroethoxy)imidazo[1,2-a]pyrazin-3-yl)pyridin-2-amine] | – | < 0.5 | – |
